55 compounds from patent publication US8895581B2, “1H-imidazo[4,5-c]quinolines” (Boehringer Ingelheim International GmbH, priority 2010, dated 2014) can be followed below.

Broadly, the IC50 is the concentration at which inhibition is half-maximal.

Recombinant human PDK1 enzyme (aa 52-556), sequence (O15530 52-556): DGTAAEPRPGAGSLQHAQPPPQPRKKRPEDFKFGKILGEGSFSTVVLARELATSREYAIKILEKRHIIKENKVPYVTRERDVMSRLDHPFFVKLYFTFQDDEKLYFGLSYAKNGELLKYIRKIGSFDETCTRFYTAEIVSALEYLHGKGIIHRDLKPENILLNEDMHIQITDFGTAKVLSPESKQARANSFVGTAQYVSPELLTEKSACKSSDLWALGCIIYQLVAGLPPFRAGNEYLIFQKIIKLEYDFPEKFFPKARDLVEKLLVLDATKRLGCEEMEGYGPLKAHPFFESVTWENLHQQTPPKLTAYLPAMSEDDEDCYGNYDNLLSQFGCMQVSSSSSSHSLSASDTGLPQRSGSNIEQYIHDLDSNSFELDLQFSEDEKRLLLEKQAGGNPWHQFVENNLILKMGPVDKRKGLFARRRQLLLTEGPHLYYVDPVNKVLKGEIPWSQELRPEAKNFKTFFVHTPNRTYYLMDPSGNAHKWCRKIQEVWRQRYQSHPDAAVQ

The test addresses Recombinant human PDK1 enzyme (aa 52-556) (Homo sapiens (Human), UniProt O15530). As to the kind of experiment: PDK1 kinase assay. Type of test: biochemical. Conditions: 25 μM ATP solution with gamma-P33-ATP, PDKtide substrate, 90 min at RT. Here is the method:
The activity of the compounds according to the invention on the kinase PDK1 which inhibits the signal transduction pathway is determined in an in vitro kinase assay with recombinantly prepared protein:
Recombinant human PDK1 enzyme (aa 52-556) linked at its N-terminal end to His6 is isolated from baculovirus-infected insect cells. Purified enzyme may be obtained for example from the University of Dundee, Scotland. The following components are combined in a well of a 96-well round-based dish (Greiner bio-one, No. 650101): • 1. 15 μL of compound to be tested in varying concentrations (e.g. starting at 10 μM, and diluted in steps of 1:5) in APT buffer (50 mM Tris/Cl pH7.5; 0.05% β-mercaptoethanol; 10 mM Mg-acetate; 0.0166% Tween 20; 3.33% DMSO) • 2. 15 μL His6-PDK1 (aa 52-556) 3.33 ng/well) and PDKtide (KTFCGTPEYLAPEVRRE […]), synthesised by Pepceuticals Limited, Nottingham, United Kingdom; 25 μM final concentration); His6-PDK1 and PDKtide are together diluted accordingly in assay buffer (50 mM tris pH 7.5, 0.05% β-mercaptoethanol, 10 mM Mg-acetate); PDKtide is present in this mixture as an 83.3 μM solution. These 30 μl are routinely incubated for 30 min at RT. • 3. 20 μL ATP solution (25 μM ATP with 1.0 μCi/well gamma-P33-ATP). The final concentration of Tween 20 is 0.005%.
The reaction is started by adding the ATP solution and the mixture is incubated for 90 min at RT. At the start of the reaction the dishes are shaken gently. The reaction is stopped by the addition of 50 μL/well of 500 mM phosphoric acid (H3PO4) and incubated for about 20 min at RT. The precipitate is transferred by harvesting onto filter plates (96-well microtitre filter plate: UniFilter GF/C; Perkin Elmer; No. 6005174), then washed 6 times with 50 mM H3PO4 and dried at 60° C. Then the plate is stuck down with sealing tape, 25 μL/well of scintillation solution (Microscint 0; Perkin Elmer; No. 6013611) are added and the amount of P33 precipitated is measured using the Wallac Betacounter. The measured data are evaluated using Graphpad Prism software.
Turning to `O=C(NCC#Cc1ccc2ncc3nc[nH]c3c2c1)c1cncn(Cc2ccc(F)c(F)c2)c1=O` [I-1, 1-(3,4-difluoro-benzyl)-6-oxo-1,6-dihydro-pyrimidine-5-carboxylic acid [3-(1H-imidazo[4,5-c]quinolin-8-yl)-prop-2-ynyl]-amide], the IC50 came to 1 nM.

For the compound `O=C(NCC#Cc1ccc2ncc3ncn(CCO)c3c2c1)c1cncn(Cc2ccc(F)c(F)c2)c1=O` [I-2], the IC50 was 4 nM.

For `O=C(NCC#Cc1ccc2ncc3ncn(C4CCC4)c3c2c1)c1cncn(Cc2ccc(F)c(F)c2)c1=O` [I-3], the IC50 was found to be 4 nM.

As for `O=C(NCC#Cc1ccc2ncc3ncn(CCCO)c3c2c1)c1cncn(Cc2ccc(F)c(F)c2)c1=O` [I-4], the IC50 turned out to be 2 nM. In the case of `CN(C)CCn1cnc2cnc3ccc(C#CCNC(=O)c4cncn(Cc5ccc(F)c(F)c5)c4=O)cc3c21` [I-5] it was 50 nM. In the case of `CN1CC[C@@H](n2cnc3cnc4ccc(C#CCNC(=O)c5cncn(Cc6ccc(F)c(F)c6)c5=O)cc4c32)C1` [I-6] it was 26 nM; in that of `CN1CC[C@H](n2cnc3cnc4ccc(C#CCNC(=O)c5cncn(Cc6ccc(F)c(F)c6)c5=O)cc4c32)C1` [I-7], 18 nM. The value for `CN(C)CCCn1cnc2cnc3ccc(C#CCNC(=O)c4cncn(Cc5ccc(F)c(F)c5)c4=O)cc3c21` [I-8] was 16 nM; that for `CN1CCC[C@@H](n2cnc3cnc4ccc(C#CCNC(=O)c5cncn(Cc6ccc(F)c(F)c6)c5=O)cc4c32)C1` [I-9] was 10 nM; that for `CN1CCC(n2cnc3cnc4ccc(C#CCNC(=O)c5cncn(Cc6ccc(F)c(F)c6)c5=O)cc4c32)CC1` [I-10] was 2 nM. Take `CC(C)N1CCC(n2cnc3cnc4ccc(C#CCNC(=O)c5cncn(Cc6ccc(F)c(F)c6)c5=O)cc4c32)CC1` [I-11]: the IC50 worked out at 11 nM. With `O=C(NCC#Cc1ccc2ncc3ncn([C@H]4CCCNC4)c3c2c1)c1cncn(Cc2ccc(F)c(F)c2)c1=O` [I-12], the IC50 is 9 nM. Regarding `O=C(NCC#Cc1ccc2ncc3ncn([C@@H]4CCNC4)c3c2c1)c1cncn(Cc2ccc(F)c(F)c2)c1=O` [I-13], the IC50 was found to be 16 nM. The value for `O=C(NCC#Cc1ccc2ncc3ncn(C4CCNCC4)c3c2c1)c1cncn(Cc2ccc(F)c(F)c2)c1=O` [I-14] was 8 nM; that for `O=C(NCC#Cc1ccc2ncc3ncn([C@H]4CCNC4)c3c2c1)c1cncn(Cc2ccc(F)c(F)c2)c1=O` [I-15] was 28 nM; that for `Cc1cc(C(=O)NCC#Cc2ccc3ncc4nc(C)n(C(C)C)c4c3c2)c(=O)n([C@H](C)c2ccc(F)c(F)c2)n1` [II-1] was 2 nM. As to `Cc1nc2cnc3ccc(C#CCNC(=O)c4cccn(Cc5ccccc5)c4=O)cc3c2n1C(C)C` [II-2], the IC50 turned out to be 8 nM. Take `Cc1nc2cnc3ccc(C#CCNC(=O)c4cccn(Cc5ccc(F)c(F)c5)c4=O)cc3c2n1C(C)C` [II-3]: the IC50 came to 2 nM.

With `Cc1nc2cnc3ccc(C#CCNC(=O)c4cc(Cl)nn(Cc5ccc(F)c(F)c5)c4=O)cc3c2n1C(C)C` [II-4], the IC50 was 5 nM. Turning to `CCOc1cc(C(=O)NCC#Cc2ccc3ncc4nc(C)n(C(C)C)c4c3c2)c(=O)n(Cc2ccc(F)c(F)c2)n1` [II-5], the IC50 stood at 4 nM. With `Cc1nc2cnc3ccc(C#CCNC(=O)c4cccn([C@H](CO)c5cccc(F)c5)c4=O)cc3c2n1C(C)C` [II-6], the concentration for half-maximal inhibition (IC50) was found to be 1 nM. In the case of `Cc1nc2cnc3ccc(C#CCNC(=O)c4cccn([C@H](C)c5ccc(F)c(F)c5)c4=O)cc3c2n1C(C)C` [II-7], the IC50 came out at 55 nM. In the case of `Cc1nc2cnc3ccc(C#CCNC(=O)c4cccn([C@H](C)C5CCCCC5)c4=O)cc3c2n1C(C)C` [II-8], the IC50 was found to be 507 nM. Take `Cc1nc2cnc3ccc(C#CCNC(=O)c4cccn([C@H](CO)c5ccc(F)c(F)c5)c4=O)cc3c2n1C(C)C` [II-9]: the IC50 amounted to 2 nM. The value for `Cc1nc2cnc3ccc(C#CCNC(=O)c4cncn(Cc5ccc(F)c(F)c5)c4=O)cc3c2n1C(C)C` [II-10] was 2 nM. The value for `Cc1cc(C(=O)NCC#Cc2ccc3ncc4nc(C)n(C(C)C)c4c3c2)c(=O)n([C@@H](C)c2ccc(F)c(F)c2)n1` [II-11] was 70 nM. `CCc1c(C(=O)NCC#Cc2ccc3ncc4nc(C)n(C(C)C)c4c3c2)c(=O)n(Cc2ccc(F)c(F)c2)n1C` [II-12]: the 50% inhibitory concentration (IC50) came to 5 nM. Turning to `Cc1nc2cnc3ccc(C#CCNC(=O)c4cccn([C@@H](C)C5CCCCC5)c4=O)cc3c2n1C(C)C` [II-14], the IC50 came out at 34 nM. Take `Cc1nc2cnc3ccc(C#CCNC(=O)c4c(C)n(C)n(C(C)c5ccc(F)c(F)c5)c4=O)cc3c2n1C(C)C` (stereo not shown) [II-15]: the IC50 came to 5 nM.

Consider `Cc1nc2cnc3ccc(C#CCNC(=O)c4c(C)n(C)n(Cc5ccc(F)c(F)c5)c4=O)cc3c2n1C(C)C` [II-16], for which the IC50 worked out at 5 nM. As for `Cc1nc2cnc3ccc(C#CCNC(=O)c4cccn([C@@H](C)c5ccc(F)c(F)c5)c4=O)cc3c2n1C(C)C` [II-17], the half-maximal inhibitory concentration (IC50) turned out to be 1 nM.

In the case of `Cc1nc2cnc3ccc(C#CCNC(=O)c4cccn(CC5CCCCC5)c4=O)cc3c2n1C(C)C` [II-18], the IC50 is 14 nM. In the case of `COc1cc(C(=O)NCC#Cc2ccc3ncc4nc(C)n(C(C)C)c4c3c2)c(=O)n(Cc2ccc(F)c(F)c2)n1` [II-19] it was 1 nM. The value for `Cc1nc2cnc3ccc(C#CCNC(=O)c4cccn([C@@H](CO)c5ccccc5)c4=O)cc3c2n1C(C)C` [II-21] was 2 nM. For the compound `Cc1nc2cnc3ccc(C#CCNC(=O)c4cccn([C@@H](CN)c5ccccc5)c4=O)cc3c2n1C(C)C` [II-22], the IC50 was determined as 16 nM. Regarding `Cc1nc2cnc3ccc(C#CCNC(=O)c4cccn(CC5C[C@@H]6CC[C@H]5C6)c4=O)cc3c2n1C(C)C` (stereo partly shown) [II-23], the IC50 was 15 nM. In the case of `Cc1nc2cnc3ccc(C#CCNC(=O)c4cccn(CC5CCOCC5)c4=O)cc3c2n1C(C)C` [II-24] it was 590 nM; in that of `Cc1nc2cnc3ccc(C#CCNC(=O)c4cccn(CC5CCCCO5)c4=O)cc3c2n1C(C)C` (stereo not shown) [II-25], 1020 nM; in that of `Cc1nc2cnc3ccc(C#CCNC(=O)c4cccn(CC5CCCC5)c4=O)cc3c2n1C(C)C` [II-26], 27 nM. The value for `Cc1nc2cnc3ccc(C#CCNC(=O)c4cccn(CC5(O)CCCCC5)c4=O)cc3c2n1C(C)C` [II-27] was 1100 nM. On to `Cc1nc2cnc3ccc(C#CCNC(=O)c4cccn(C[C@H]5CCCC[C@H]5O)c4=O)cc3c2n1C(C)C` [II-28], for which the IC50 was found to be 221 nM. The value for `Cc1nc2cnc3ccc(C#CCNC(=O)c4cccn(CC5CCCOC5)c4=O)cc3c2n1C(C)C` (stereo not shown) [II-29] was 202 nM; that for `Cc1nc2cnc3ccc(C#CCNC(=O)c4cccn([C@@H](CN)c5ccc(F)c(F)c5)c4=O)cc3c2n1C(C)C` [II-30] was 2 nM.

With `Cc1nc2cnc3ccc(C#CCNC(=O)c4cccn(Cc5ccc(F)c(F)c5)c4=O)cc3c2n1C1CCN(C(C)C)CC1` [II-31], the half-maximal inhibitory concentration (IC50) came out at 8 nM. With `Cc1nc2cnc3ccc(C#CCNC(=O)c4cccn([C@@H](C)c5ccc(F)c(F)c5)c4=O)cc3c2n1C1CCN(C(C)C)CC1` [II-32], the IC50 turned out to be 3 nM. In the case of `Cc1nc2cnc3ccc(C#CCNC(=O)c4cccn(Cc5ccc(F)c(F)c5)c4=O)cc3c2n1C1CCN(C)CC1` [II-34] it was 6 nM; in that of `CC(C)N1CCC(n2cnc3cnc4ccc(C#CCNC(=O)c5cccn(Cc6ccc(F)c(F)c6)c5=O)cc4c32)CC1` [II-35], 7 nM. In the case of `O=C(NCC#Cc1ccc2ncc3ncn([C@@H]4CCNC4)c3c2c1)c1cccn([C@H](CO)c2ccccc2)c1=O` [III-1] it was 18 nM; in that of `CC(C)N1CCC(n2cnc3cnc4ccc(C#CCNC(=O)c5cccn([C@@H](C)c6ccc(F)c(F)c6)c5=O)cc4c32)CC1` [III-2], 2 nM; in that of `Cc1cc(C(=O)NCC#Cc2ccc3ncc4ncn([C@H]5CC[C@@H](N(C)C)CC5)c4c3c2)c(=O)n(Cc2ccc(F)c(F)c2)n1` [III-3], 15 nM.

`Cc1nc2cnc3ccc(C#CCNC(=O)c4ccnn(Cc5ccc(F)c(F)c5)c4=O)cc3c2n1C1CCN(C(C)C)CC1` [III-4]: the half-maximal inhibitory concentration (IC50) was 21 nM. `Cc1nc2cnc3ccc(C#CCNC(=O)c4cccn([C@@H](C)c5ccc(F)c(F)c5)c4=O)cc3c2n1[C@H]1CC[C@@H](N(C)C)CC1` [III-5]: the 50% inhibitory concentration (IC50) came out at 1 nM.

As for `Cc1nc2cnc3ccc(C#CCNC(=O)c4cccn([C@@H](C)c5ccc(F)c(F)c5)c4=O)cc3c2n1C1CCN(C)CC1` [III-6], the IC50 stood at 2 nM. In the case of `Cc1nc2cnc3ccc(C#CCNC(=O)c4cc(Cl)nn(Cc5ccc(F)c(F)c5)c4=O)cc3c2n1CCc1ccccc1` [III-7] it was 7 nM; in that of `O=C(NCC#Cc1ccc2ncc3ncn(C4CCNCC4)c3c2c1)c1cccn([C@H](CO)c2ccccc2)c1=O` [III-8], 2010 nM.
